Source: patent US20240150377A1, “MODULATORS OF CYSTIC FIBROSIS TRANSMEMBRANE CONDUCTANCE REGULATOR” (VERTEX PHARMACEUTICALS INCORPORATED, priority 2020, published 2024)

Target: T1, CFTR (Homo sapiens, UniProt P13569, DEL508-508)
T1 construct: endogenous in cells; host or cells: primary human bronchial epithelial cells from CF subjects (F508del/MF-HBE), differentiated at air-liquid interface
Experiment: HBE2 assay: Ussing chamber assay of CFTR-mediated short-circuit currents
Format: cell-based
Conditions: 3 μM corrector; F508del/MF-HBE cells; with 44 nM potentiator, 18-24 hours, 20% human serum
Method in brief: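 F508del/MF-HBE cultured >14 days at air-liquid interface, mounted in Ussing chambers; transepithelial short-circuit current recorded under voltage clamp (Vhold=0 mV) at 37 °C. CFTR-mediated ISC (μA/cm^2) taken as peak forskolin response relative to steady-state current after inhibition; corrector activity assessed this way.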

T1 sequence (P13569 with tags, fused parts or gaps DEL508-508): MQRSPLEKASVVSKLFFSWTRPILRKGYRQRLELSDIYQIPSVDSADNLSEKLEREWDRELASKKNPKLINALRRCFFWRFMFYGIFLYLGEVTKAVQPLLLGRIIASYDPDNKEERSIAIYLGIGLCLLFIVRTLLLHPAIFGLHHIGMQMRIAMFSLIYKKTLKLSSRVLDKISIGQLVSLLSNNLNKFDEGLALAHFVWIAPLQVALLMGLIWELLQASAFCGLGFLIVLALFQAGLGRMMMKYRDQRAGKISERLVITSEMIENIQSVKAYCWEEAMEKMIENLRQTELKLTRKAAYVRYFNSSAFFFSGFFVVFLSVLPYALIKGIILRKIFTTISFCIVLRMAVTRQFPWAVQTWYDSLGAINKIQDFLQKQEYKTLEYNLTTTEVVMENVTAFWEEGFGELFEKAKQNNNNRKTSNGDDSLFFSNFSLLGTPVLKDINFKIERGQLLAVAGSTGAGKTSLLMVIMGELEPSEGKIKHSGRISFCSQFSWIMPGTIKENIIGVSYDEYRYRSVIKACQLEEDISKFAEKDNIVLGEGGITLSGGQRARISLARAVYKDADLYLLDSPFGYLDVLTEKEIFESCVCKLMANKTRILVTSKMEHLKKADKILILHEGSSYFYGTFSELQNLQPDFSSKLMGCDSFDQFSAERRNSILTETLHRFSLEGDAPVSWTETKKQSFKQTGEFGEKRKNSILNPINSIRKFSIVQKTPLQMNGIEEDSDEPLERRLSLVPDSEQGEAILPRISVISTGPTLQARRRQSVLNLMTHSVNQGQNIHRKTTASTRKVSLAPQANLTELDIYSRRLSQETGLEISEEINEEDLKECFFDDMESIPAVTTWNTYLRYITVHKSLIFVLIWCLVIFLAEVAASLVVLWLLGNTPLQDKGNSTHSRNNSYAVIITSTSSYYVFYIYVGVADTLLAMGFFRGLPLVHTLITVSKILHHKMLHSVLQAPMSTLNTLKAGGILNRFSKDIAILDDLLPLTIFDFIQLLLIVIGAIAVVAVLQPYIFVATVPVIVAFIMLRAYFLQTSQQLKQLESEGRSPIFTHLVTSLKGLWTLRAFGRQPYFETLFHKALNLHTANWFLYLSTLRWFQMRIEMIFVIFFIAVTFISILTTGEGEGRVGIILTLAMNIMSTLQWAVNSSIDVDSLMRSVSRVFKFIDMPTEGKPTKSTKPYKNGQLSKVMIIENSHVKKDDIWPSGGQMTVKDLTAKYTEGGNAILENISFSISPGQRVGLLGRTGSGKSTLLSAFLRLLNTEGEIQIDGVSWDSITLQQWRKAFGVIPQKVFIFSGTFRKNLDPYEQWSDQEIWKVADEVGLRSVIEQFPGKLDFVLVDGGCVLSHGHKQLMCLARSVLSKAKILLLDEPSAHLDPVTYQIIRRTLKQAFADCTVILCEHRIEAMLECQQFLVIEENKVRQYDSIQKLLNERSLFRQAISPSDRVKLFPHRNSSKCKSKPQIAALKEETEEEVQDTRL

Structure (SMILES) | HBE2 Activity at 3 μM (%)
CCN(CC1CC1)c1cncc(CN2C(=O)c3cccc(c3)S(=O)(=O)Nc3nc(cc(-c4c(C)cccc4C)n3)OC[C@H]2CC(C)(C)C)n1 [Compound 1780] | +++ (+++ is >60+)
Cc1cccc(C)c1-c1cc2nc(n1)NS(=O)(=O)c1cccc(c1)C(=O)N(Cc1cncc(N3CCC[C@@H](C)[C@H]3C)n1)[C@H](CC(C)(C)C)CO2 [Compound 1783] | +++ (+++ is >60+)
Cc1cccc(C)c1-c1cc2nc(n1)NS(=O)(=O)c1cccc(c1)C(=O)N(Cc1cncc(N(C)C3CC4CCC43)n1)[C@H](CC(C)(C)C)CO2 (stereo partly shown) [Compound 1784] | +++ (+++ is >60+)
Cc1cccc(C)c1-c1cc2nc(n1)NS(=O)(=O)c1cccc(c1)C(=O)N(Cc1cncc(N(C)C3CCC3C)n1)[C@H](CC(C)(C)C)CO2 (stereo partly shown) [Compound 1785] | +++ (+++ is >60+)
COC[C@@H]1CCN1c1cncc(CN2C(=O)c3cccc(c3)S(=O)(=O)Nc3nc(cc(-c4c(C)cccc4C)n3)OC[C@H]2CC2CC2)n1 [Compound 1786] | +++ (+++ is >60+)
Cc1cccc(C)c1-c1cc2nc(n1)NS(=O)(=O)c1cccc(c1)C(=O)N(Cc1cncc(N3CCC[C@H]3C)n1)[C@H](CC1CC1)CO2 [Compound 1787] | +++ (+++ is >60+)
Cc1cccc(C)c1-c1cc2nc(n1)NS(=O)(=O)c1cccc(c1)C(=O)N(Cc1cncc(N(C)C(C)C)n1)[C@H](CCC(C)(C)C)CO2 [Compound 1788] | +++ (+++ is >60+)
Cc1cccc(C)c1-c1cc2nc(n1)NS(=O)(=O)c1cccc(c1)C(=O)N(Cc1cccc(N3CCC[C@H]3C)n1)[C@H](CCC(C)(C)C)CO2 [Compound 1789] | +++ (+++ is >60+)
Cc1cccc(C)c1-c1cc2nc(n1)NS(=O)(=O)c1cccc(c1)C(=O)N(Cc1cccc(N(C)C(C)C)n1)[C@H](CCC(C)(C)C)CO2 [Compound 1790] | +++ (+++ is >60+)
Cc1cccc(C)c1-c1cc2nc(n1)NS(=O)(=O)c1cccc(c1)C(=O)N(Cc1cncc(N(C)CC(C)C)n1)[C@H](CCC(C)(C)C)CO2 [Compound 1791] | +++ (+++ is >60+)
Cc1cccc(C)c1-c1cc2nc(n1)NS(=O)(=O)c1cccc(c1)C(=O)N(Cc1cncc(N3CCCC[C@H]3C)n1)[C@H](CC1CC1)CO2 [Compound 1792] | +++ (+++ is >60+)
Cc1cccc(C)c1-c1cc2nc(n1)NS(=O)(=O)c1cccc(c1)C(=O)N(Cc1cncc(N3CCCC4CCC43)n1)[C@H](CC1(C)CCC1)CO2 (stereo partly shown) [Compound 1793] | +++ (+++ is >60+)
Cc1cccc(C)c1-c1cc2nc(n1)NS(=O)(=O)c1cccc(c1)C(=O)N(Cc1cncc(N3CCCC4CCC43)n1)[C@H](CC1(C)CCC1)CO2 (stereo partly shown) [Compound 1794] | +++ (+++ is >60+)
Cc1cccc(C)c1-c1cc2nc(n1)NS(=O)(=O)c1cccc(c1)C(=O)N(Cc1cncc(N(C)CC(C)(C)C)n1)[C@H](CCC(C)C)CO2 [Compound 1795] | +++ (+++ is >60+)
Cc1cccc(C)c1-c1cc2nc(n1)NS(=O)(=O)c1cccc(c1)C(=O)N(Cc1cncc(N(C)C3CC4(CC4)C3)n1)[C@H](CCC(C)C)CO2 [Compound 1796] | +++ (+++ is >60+)
Cc1cccc(C)c1-c1cc2nc(n1)NS(=O)(=O)c1cccc(c1)C(=O)N(Cc1cncc(N3CC[C@H]3C(C)C)n1)[C@H](CCC(C)(C)C)CO2 [Compound 1797] | +++ (+++ is >60+)
Cc1cccc(C)c1-c1cc2nc(n1)NS(=O)(=O)c1cccc(c1)C(=O)N(Cc1cncc(N3C[C@H]4CCCC[C@H]43)n1)[C@H](CC(C)(C)C)CO2 [Compound 1800] | +++ (+++ is >60+)

Structure (SMILES) | HBE2 Activity at 3 μM (%)
Cc1cccc(C)c1-c1cc2nc(n1)NS(=O)(=O)c1cccc(c1)C(=O)N(Cc1cncc(N3CC[C@H]3C)n1)[C@H](CC(C)(C)F)CO2 [Compound 1801] | +++ (+++ is >60+)
COC[C@@H]1CCN1c1cncc(CN2C(=O)c3cccc(c3)S(=O)(=O)Nc3nc(cc(-c4c(C)cccc4C)n3)OC[C@H]2CC(C)(C)F)n1 [Compound 1802] | +++ (+++ is >60+)
Cc1cccc(C)c1-c1cc2nc(n1)NS(=O)(=O)c1cccc(c1)C(=O)N(Cc1cncc(N3CCC[C@H]3C)n1)[C@H](CC(C)(C)F)CO2 [Compound 1803] | +++ (+++ is >60+)
Cc1cccc(C)c1-c1cc2nc(n1)NS(=O)(=O)c1cccc(c1)C(=O)N(Cc1cncc(N(C)C3CCC3)n1)[C@H](CC1CCCCC1)CO2 [Compound 1804] | +++ (+++ is >60+)
Cc1cccc(C)c1-c1cc2nc(n1)NS(=O)(=O)c1cccc(c1)C(=O)N(Cc1cncc(N3CCCC[C@H]3C)n1)[C@H](CC(C)(C)F)CO2 [Compound 1805] | +++ (+++ is >60+)
Cc1cccc(C)c1-c1cc2nc(n1)NS(=O)(=O)c1cccc(c1)C(=O)N(Cc1cncc(N(C)C)n1)[C@H](CCC(C)(C)C)CO2 [Compound 1806] | +++ (+++ is >60+)
CCN(C)c1cncc(CN2C(=O)c3cccc(c3)S(=O)(=O)Nc3nc(cc(-c4c(C)cccc4C)n3)OC[C@H]2CCC(C)(C)C)n1 [Compound 1807] | +++ (+++ is >60+)
CCN(c1cncc(CN2C(=O)c3cccc(c3)S(=O)(=O)Nc3nc(cc(-c4c(C)cccc4C)n3)OC[C@H]2CCC(C)(C)C)n1)C1CCC1 [Compound 1808] | +++ (+++ is >60+)
CCN(CC1CC1)c1cncc(CN2C(=O)c3cccc(c3)S(=O)(=O)Nc3nc(cc(-c4c(C)cccc4C)n3)OC[C@H]2CCC(C)(C)C)n1 [Compound 1809] | +++ (+++ is >60+)
Cc1cccc(C)c1-c1cc2nc(n1)NS(=O)(=O)c1cccc(c1)C(=O)N(Cc1cncc(N(C)CC3CC3)n1)[C@H](CCC(C)(C)C)CO2 [Compound 1810] | +++ (+++ is >60+)
CCN(CCOC)c1cncc(CN2C(=O)c3cccc(c3)S(=O)(=O)Nc3nc(cc(-c4c(C)cccc4C)n3)OC[C@H]2CCC(C)(C)C)n1 [Compound 1811] | +++ (+++ is >60+)
COCCN(C)c1cncc(CN2C(=O)c3cccc(c3)S(=O)(=O)Nc3nc(cc(-c4c(C)cccc4C)n3)OC[C@H]2CCC(C)(C)C)n1 [Compound 1812] | +++ (+++ is >60+)
Cc1cccc(C)c1-c1cc2nc(n1)NS(=O)(=O)c1cccc(c1)C(=O)N(Cc1cncc(N3CCC[C@H]3C3CC3)n1)[C@H](CCC(C)(C)C)CO2 [Compound 1813] | +++ (+++ is >60+)
Cc1cccc(C)c1-c1cc2nc(n1)NS(=O)(=O)c1cccc(c1)C(=O)N(Cc1cncc(N3CCC[C@H]3C)n1)[C@H](CCC(C)(C)C)CO2 [Compound 1814] | +++ (+++ is >60+)
Cc1cccc(C)c1-c1cc2nc(n1)NS(=O)(=O)c1cccc(c1)C(=O)N(Cc1cncc(N(C)C3CC(F)(F)C3)n1)[C@H](CCC(C)(C)C)CO2 [Compound 1815] | +++ (+++ is >60+)
CC[C@@H]1CCCN1c1cncc(CN2C(=O)c3cccc(c3)S(=O)(=O)Nc3nc(cc(-c4c(C)cccc4C)n3)OC[C@H]2CCC(C)(C)C)n1 [Compound 1816] | +++ (+++ is >60+)
Cc1cccc(C)c1-c1cc2nc(n1)NS(=O)(=O)c1cccc(c1)C(=O)N(Cc1cncc(N(C)C3CC4(CC4)C3)n1)[C@H](CCC(C)(C)C)CO2 [Compound 1817] | +++ (+++ is >60+)
